The values that follow come from US20260078103A1, “ISOQUINOLONES AS PI3K INHIBITORS” (OnKure, Inc., priority 2022, published 2026).

Type in all cases: cell-based
Assay [1] relates to phosphorylation of AKT (pAKT) in T47D cells expressing mutant PI3Ka (H1047R). Briefly: In vitro cell pAKT (Ser473) HTRF, T47D cells. To be noted: cellular pAKT, T47D cells, mutant PI3Ka (H1047R), 6 hours, read-out: Avg T-47D IC50. On the procedure:
(§1) In Vitro Cell pAKT: Determination of IC50 Values for Inhibition of Phosphorylation of AKT (pAKT) in T47D Cells Expressing Mutant PI3Ka (H1047R) Mutation and SKBR3 Cells Express WT PI3Ka.
(§2) T47D or SKBR3 cells were trypsinized, resuspended in culture media and seeded onto assay ready plates. T47D culture media consisted of RPMI, 10% FBS and Insulin (0.2 units/mL). SKBR3 culture media consisted of McCoy's 5a and 10% FBS. Cells were seeded at a density of 5000 cells/well and dispensed in 12.5 μL onto 384 well assay ready plates (Perkin Elmer, 6008238)). Assay ready plates had previously been stamped with 10-point dilutions of compounds of interest, as well as controls. The Echo655 is used to stamp plates at 12.5 nL of compound or DMSO. Cells were grown for 6 hours at 37° Celsius and 5% CO2. After 6 hours, 4 μL of Lysis buffer reagent was added to the plate, which was then centrifuged for 1 minute at 1000 rpm. Then the plate was incubated at room temperature for 30 minutes. After 30 minutes, 4 μL of antibody mix containing Eu Cryptate, d2 Cryptate, and detection buffer, was added to the plate. The plate was centrifuged for 1 minute at 1000 rpm and then incubated overnight at room temperature. The plate was read on an Envision plate reader using the HTRF protocol. The percentage of inhibition of AKT phosphorylation was calculated using the following formula: % Inhibition=100×(pAKTHC−pAKTSample)/(pAKTHC−pAKTLC)), where pAKTHC is obtained from cells treated with 0.1% DMSO only; PAKTLC is obtained from cells treated with 10 uM Alpelisib. The IC50 (concentration achieving 50% inhibition of pAKT) is calculated by fitting the Curve using XIfit (v5.3.1.3), equation 201: Y=Bottom+(Top−Bottom)/(1+10^((LogIC50−X)*HillSlope)).

The test system of assay [2] is T47D cells expressing mutant PI3Ka (H1047R). Put plainly: In vitro cell proliferation, T47D cells (CellTiter-Glo). Particulars: inhibition of proliferation, read-out: Avg T-47D EC50. On the procedure:
(§3) In Vitro Cell Proliferation: Determination of EC50 Values for Inhibition of Proliferation in T47D Cells Expressing Mutant PI3Ka (H1047R) Mutation and SKBR3 Cells Express WT PI3Ka.
(§4) T47D or SKBR3 cells were trypsinized, resuspended in culture media and seeded onto assay ready plates. T47D culture media consisted of RPMI, 10% FBS and Insulin (0.2 units/mL). SKBR3 culture media consisted of McCoys 5a and 10% FBS. Cells were seeded at a density of 1,500 cells/well and dispensed in 50 μl onto 384 well assay ready plates (Corning, 89089-790). Assay ready plates had previously been stamped with 10-point dilutions of compounds of interest, as well as controls. The Echo655 is used to stamp plates at 40 nL of compound or DMSO. Cells were grown for 72 hours at 37° Celsius and 5% CO2. After 72 hours, cells were equilibrated at room temperature for 15 minutes. 30 μL of CellTiter-Glo reagent is added to the plate, which is then shaken for 30 minutes at temperature at 300-500 rpm. Cells are then read on an Envision plate reader. The percentage of inhibition of proliferation was calculated using the following formula: % Inhibition=100×(LumD−Lumsample)/(LumD−Lumlnh), where D is obtained from cells treated with 0.1% DMSO only; lnh is obtained from cells treated with 10 uM Alpelisib. The effective concentration achieving 50% inhibition of proliferation (EC50) is calculated by fitting the Curve using Xlfit (v5.3.1.3), equation 201: Y=Bottom+(Top−Bottom)/(1+10^((LogEC50−X)*HillSlope)).
On the technique in general: Cellular ATP, detected with luciferase, serves as a proxy for viable cell number.

Assay [3] has as its system phosphorylation of AKT (pAKT) in SKBR3 cells express WT PI3Ka. Briefly: In vitro cell pAKT (Ser473) HTRF, SKBR3 cells. Particulars: cellular pAKT. As for the experimental part:
as §1, §2
For orientation: In TR-FRET formats the signal depends on donor and acceptor labels being close together.

Assay [4] has as its system SKBR3 cells express WT PI3Ka. Put plainly: In vitro cell proliferation, SKBR3 cells (CellTiter-Glo). To be noted: inhibition of proliferation. On the procedure:
as §3, §4

Each structure is given as a SMILES string. Like-named read-outs stand apart in the source and are kept apart here.

By IC50 is commonly meant the concentration needed to halve the response being measured. By EC50 is commonly meant the concentration at which the effect is half-maximal. With `Cc1cc(C(C)Nc2ccccc2C(=O)O)c2cc(N3CC(c4ccccc4)C3)n(C)c(=O)c2c1` (single isomer, unassigned) [Example 77], the IC50 is 0.001 to 0.5 µM in assay [1] and over 15 µM in assay [3] (6 hours). Also, the EC50 is 0.5 to 2 µM in assay [2] (72 hours) and over 15 µM in assay [4] (72 hours).
`Cc1cc(C(C)Nc2ccccc2C(=O)O)c2cc(N3CC(Cl)C3)n(C)c(=O)c2c1` (single isomer, unassigned) [Example 78]: the IC50 in assay [1] is over 15 µM; in assay [3] (Homo sapiens, SK-BR-3, 6 h), over 15 µM. Moreover, the EC50 in assay [2] (72 hours) is 2 to 15 µM; in assay [4] (Homo sapiens, SK-BR-3, 72 h), over 15 µM.
Consider `Cc1cc(C(C)Nc2ccccc2C(=O)O)c2cc(N3CC(Cl)C3)n(C)c(=O)c2c1` (single isomer, unassigned) [Example 79], for which the IC50 in assay [1] is 0.001 to 0.5 µM; in assay [3] (6 hours), over 15 µM. Besides, the concentration for a half-maximal effect (EC50) was 0.001 to 0.5 µM in assay [2] (72 hours) and over 15 µM in assay [4] (72 hours).
On to `Cc1cc(C(C)Nc2ccccc2C(=O)O)c2cc(N3CC4(C3)CC(F)(F)C4)n(C)c(=O)c2c1` (single isomer, unassigned) [Example 80], for which the IC50 in assay [1] is over 15 µM; in assay [3] (Homo sapiens, SK-BR-3, 6 h) it was over 15 µM. The EC50 is over 15 µM in assay [2] (72 hours) and over 15 µM in assay [4] (Homo sapiens, SK-BR-3, 72 h).
For the compound `Cc1cc(C(C)Nc2ccccc2C(=O)O)c2cc(N3CC4(C3)CC(F)(F)C4)n(C)c(=O)c2c1` (single isomer, unassigned) [Example 81], the figures for the concentration for half-maximal inhibition (IC50) in assay [1] and in assay [3] (6 hours) were 0.001 to 0.5 µM and over 15 µM, respectively. In addition, the figures for the EC50 in assay [2] (72 hours) and in assay [4] (72 hours) were 0.5 to 2 µM and over 15 µM, respectively.
With `Cc1cc(C(C)Nc2ccccc2C(=O)O)c2cc(N3CC4(CC(C(F)(F)F)C4)C3)n(C)c(=O)c2c1` (single isomer, unassigned) [Example 82], the IC50 was 0.001 to 0.5 µM in assay [1] and over 15 µM in assay [3] (Homo sapiens, SK-BR-3, 6 h). Also, the EC50 is 0.5 to 2 µM in assay [2] (72 hours) and over 15 µM in assay [4] (Homo sapiens, SK-BR-3, 72 h).
Turning to `Cc1cc(C(C)Nc2ccccc2C(=O)O)c2cc(N3CC4(CC(C(F)(F)F)C4)C3)n(C)c(=O)c2c1` (single isomer, unassigned) [Example 83], the concentration for half-maximal inhibition (IC50) in assay [1] and in assay [3] (6 hours) was over 15 µM each time. Further, the figures for the EC50 in assay [2] (72 hours) and in assay [4] (72 hours) were 2 to 15 µM and over 15 µM, respectively.
In the case of `Cc1cc(C(C)Nc2ccccc2C(=O)O)c2cc(N3Cc4cccc(C(F)(F)F)c4C3)n(C)c(=O)c2c1` (single isomer, unassigned) [Example 92], the IC50 in assay [1] is 0.001 to 0.5 µM; in assay [3] (Homo sapiens, SK-BR-3, 6 h) it was over 15 µM. The EC50 in assay [2] (72 hours) is 0.5 to 2 µM; in assay [4] (Homo sapiens, SK-BR-3, 72 h), over 15 µM.
For `Cc1cc(C(C)Nc2ccccc2C(=O)O)c2cc(N3Cc4cccc(C(F)(F)F)c4C3)n(C)c(=O)c2c1` (single isomer, unassigned) [Example 93], the IC50 in assay [1] and in assay [3] (6 hours) was over 15 µM each time. Further, the values for the EC50 in assay [2] (72 hours) and in assay [4] (72 hours) were 2 to 15 µM and over 15 µM, respectively.
On to `Cc1cc(C(C)Nc2ccccc2C(=O)O)c2cc(N3CCC4(CCN(CC(F)(F)F)C4)CC3)n(C)c(=O)c2c1` (single isomer, unassigned) [Example 96], for which the IC50 in assay [1] was 0.001 to 0.5 µM; in assay [3] (Homo sapiens, SK-BR-3, 6 h), over 15 µM. Also, the EC50 was 0.001 to 0.5 µM in assay [2] (72 hours) and 2 to 15 µM in assay [4] (72 hours).
For the compound `Cc1cc(C(C)Nc2ccccc2C(=O)O)c2cc(N3CCC4(CCN(CC(F)(F)F)C4)CC3)n(C)c(=O)c2c1` (single isomer, unassigned) [Example 97], the IC50 in assay [1] was 2 to 15 µM; in assay [3] (6 hours) it was over 15 µM. The EC50 in assay [2] (72 hours) was 2 to 15 µM; in assay [4] (72 hours) it was over 15 µM.
As to `Cc1cc(C(C)Nc2ccccc2C(=O)O)c2cc(N3C[C@@H]4CCCC[C@H]4C3)n(C)c(=O)c2c1` (single isomer, unassigned) [Example 100], the IC50 in assay [1] was 0.001 to 0.5 µM; in assay [3] (Homo sapiens, SK-BR-3, 6 h), over 15 µM. In addition, the EC50 in assay [2] (72 hours) is 0.001 to 0.5 µM; in assay [4] (Homo sapiens, SK-BR-3, 72 h) it was over 15 µM.
As to `Cc1cc(C(C)Nc2ccccc2C(=O)O)c2cc(N3C[C@H]4CCCC[C@@H]4C3)n(C)c(=O)c2c1` (single isomer, unassigned) [Example 101], the IC50 in assay [1] (Homo sapiens, T47D, 6 h) is over 15 µM; in assay [3] (Homo sapiens, SK-BR-3, 6 h) it was over 15 µM. Besides, the EC50 in assay [2] (Homo sapiens, T47D, 72 h) is over 15 µM; in assay [4] (Homo sapiens, SK-BR-3, 72 h) it was over 15 µM.
On to `Cc1cc(C(C)Nc2ccccc2C(=O)O)c2cc(N3Cc4cc(F)cc(F)c4C3)n(C)c(=O)c2c1` (single isomer, unassigned) [Example 102], for which the 50% inhibitory concentration (IC50) in assay [1] was over 15 µM; in assay [3] (Homo sapiens, SK-BR-3, 6 h), over 15 µM. Besides, the concentration for a half-maximal effect (EC50) was 2 to 15 µM in assay [2] (72 hours) and over 15 µM in assay [4] (Homo sapiens, SK-BR-3, 72 h).
As to `Cc1cc(C(C)Nc2ccccc2C(=O)O)c2cc(N3Cc4cc(F)cc(F)c4C3)n(C)c(=O)c2c1` (single isomer, unassigned) [Example 103], the half-maximal inhibitory concentration (IC50) in assay [1] is 0.001 to 0.5 µM; in assay [3] (6 hours), over 15 µM. Moreover, the EC50 in assay [2] (72 hours) was 0.001 to 0.5 µM; in assay [4] (72 hours), over 15 µM.
Turning to `Cc1cc(C(C)Nc2ccccc2C(=O)O)c2cc(N3CCC(c4ccccc4)C3)n(C)c(=O)c2c1` (single isomer, unassigned) [Example 104], the IC50 in assay [1] was over 15 µM; in assay [3] (Homo sapiens, SK-BR-3, 6 h), over 15 µM. The EC50 in assay [2] (72 hours) and in assay [4] (72 hours) was 2 to 15 µM throughout.
With `Cc1cc(C(C)Nc2ccccc2C(=O)O)c2cc(N3CCC(c4ccccc4)C3)n(C)c(=O)c2c1` (single isomer, unassigned) [Example 105], the values for the IC50 in assay [1] and in assay [3] (6 hours) were 0.001 to 0.5 µM and over 15 µM, respectively. In addition, the values for the EC50 in assay [2] (72 hours) and in assay [4] (72 hours) were 0.5 to 2 µM and over 15 µM, respectively.
Turning to `Cc1cc(C(C)Nc2ccccc2C(=O)O)c2cc(N3Cc4ccncc4C3)n(C)c(=O)c2c1` (single isomer, unassigned) [Example 106], the IC50 in assay [1] was over 15 µM; in assay [3] (Homo sapiens, SK-BR-3, 6 h), over 15 µM. Also, the EC50 in assay [2] (72 hours) was 2 to 15 µM; in assay [4] (Homo sapiens, SK-BR-3, 72 h), over 15 µM.
For `Cc1cc(C(C)Nc2ccccc2C(=O)O)c2cc(N3Cc4ccncc4C3)n(C)c(=O)c2c1` (single isomer, unassigned) [Example 107], the IC50 in assay [1] was 0.001 to 0.5 µM; in assay [3] (6 hours), over 15 µM. Further, the EC50 is 0.001 to 0.5 µM in assay [2] (72 hours) and over 15 µM in assay [4] (72 hours).
Turning to `Cc1cc(C(C)Nc2ccccc2C(=O)O)c2cc(N3C[C@@H]4CN(CC(F)(F)F)C[C@H]4C3)n(C)c(=O)c2c1` (single isomer, unassigned) [Example 108], the IC50 in assay [1] and in assay [3] (6 hours) was over 15 µM each time. The figures for the EC50 in assay [2] (72 hours) and in assay [4] (72 hours) were 2 to 15 µM and over 15 µM, respectively.
`Cc1cc(C(C)Nc2ccccc2C(=O)O)c2cc(N3C[C@@H]4CN(CC(F)(F)F)C[C@H]4C3)n(C)c(=O)c2c1` (single isomer, unassigned) [Example 109]: the IC50 in assay [1] is 0.001 to 0.5 µM; in assay [3] (6 hours) it was over 15 µM. Moreover, the EC50 in assay [2] (72 hours) was in the range of 0.001 to 0.5 µM; in assay [4] (72 hours), 2 to 15 µM.
Regarding `Cc1cc(C(C)Nc2ccccc2C(=O)O)c2cc(N3CCC4(CCN(CC(F)(F)F)CC4)CC3)n(C)c(=O)c2c1` (single isomer, unassigned) [Example 110], the IC50 in assay [1] and in assay [3] (6 hours) was over 15 µM in each case. The EC50 in assay [2] (72 hours) and in assay [4] (72 hours) was 2 to 15 µM throughout.
